In general, AC50 refers to the concentration giving half of the maximal activity seen.

Where “and” joins values, the source holds several entries; their conditions need not be identical. Equal values may be shown once. Read-outs that look alike come from different tables or passages of the source.

Series [1] in a line: Phase 1: hematologic and hemolytic laboratory parameters in SCD patients. In kind it is in vivo, human. The following applies: for Hemoglobin / Indirect Bilirubin / Lactate Dehydrogenase, U/L / Reticulocytes, %: SCD 300 mg Compound 1/Placebo (blinded) once daily, individual Pt 1-3. An excerpt:
Laboratory changes relative to pretreatment for each pt in the MD cohort as of Jul. In 2 of 3 SCD MD-1 pts treated with Compound 1/placebo (currently blinded), Hb increased by >1 g/dL, % reticulocytes decreased, and markers of hemolysis were improved after 14 days of treatment (compared to pre-treatment levels). Hematologic parameters returned to pre-treatment levels 4 to 7 days post-treatment (data not shown) without clinical AEs.
A median 1.2 g/dL Hb increase (range 0, 2.3) and a median 60% reticulocyte decrease (range −39%, −81%) over baseline were observed. The onset of the increase in Hb was rapid and continued to increase in most patients through the end of treatment, indicating the potential for additional improvement with extended dosing. […] A median 36% LDH decrease (range +18%, −57%) and a median 35% bilirubin decrease (range −7%, −63%) over baseline were observed, which is consistent with the hypothesis that Compound 1 improves RBC survival and reduces RBC turnover.

A further series addresses T1, aromatase (Homo sapiens, UniProt P11511).
T1 construct: endogenous in cells; host or cells: H295R adreno-cortical carcinoma cells; healthy human subjects in vivo
T1 sequence (P11511 1-503): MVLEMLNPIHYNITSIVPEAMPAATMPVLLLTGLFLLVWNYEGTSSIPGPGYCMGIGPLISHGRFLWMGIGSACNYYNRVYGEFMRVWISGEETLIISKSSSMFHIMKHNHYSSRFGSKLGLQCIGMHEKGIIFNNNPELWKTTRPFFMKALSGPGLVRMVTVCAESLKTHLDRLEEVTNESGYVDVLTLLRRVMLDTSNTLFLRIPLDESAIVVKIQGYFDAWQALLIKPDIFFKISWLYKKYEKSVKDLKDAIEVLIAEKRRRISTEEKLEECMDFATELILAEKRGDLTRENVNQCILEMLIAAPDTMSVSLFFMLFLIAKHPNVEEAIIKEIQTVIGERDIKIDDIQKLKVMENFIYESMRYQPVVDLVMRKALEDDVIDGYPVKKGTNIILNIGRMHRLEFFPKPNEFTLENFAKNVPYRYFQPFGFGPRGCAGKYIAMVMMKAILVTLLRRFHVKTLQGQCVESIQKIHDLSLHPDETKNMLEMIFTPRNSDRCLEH
The following applies: Yang et al. 2018; Grace et al. 2019; cited from earlier work.

For another series, the target named is PKR (G332S) (Homo sapiens, UniProt P30613, G332S). Nature of the series: Luminescence Assay (Kinase Glo Plus) of PKR activation. In kind it is biochemical. The following applies: read-out: AC50 (PKRG332S). Here is the method: (§1) PKR Activating Compounds can be identified with the biochemical Luminescence Assay of Example 2. The PKR activating activity of a series of chemical compounds was evaluated using the Luminescence Assay below, including compounds designated Compound 1, and Compound 2, or mixtures thereof.
Chain of PKR (G332S) (P30613 whole entry G332S): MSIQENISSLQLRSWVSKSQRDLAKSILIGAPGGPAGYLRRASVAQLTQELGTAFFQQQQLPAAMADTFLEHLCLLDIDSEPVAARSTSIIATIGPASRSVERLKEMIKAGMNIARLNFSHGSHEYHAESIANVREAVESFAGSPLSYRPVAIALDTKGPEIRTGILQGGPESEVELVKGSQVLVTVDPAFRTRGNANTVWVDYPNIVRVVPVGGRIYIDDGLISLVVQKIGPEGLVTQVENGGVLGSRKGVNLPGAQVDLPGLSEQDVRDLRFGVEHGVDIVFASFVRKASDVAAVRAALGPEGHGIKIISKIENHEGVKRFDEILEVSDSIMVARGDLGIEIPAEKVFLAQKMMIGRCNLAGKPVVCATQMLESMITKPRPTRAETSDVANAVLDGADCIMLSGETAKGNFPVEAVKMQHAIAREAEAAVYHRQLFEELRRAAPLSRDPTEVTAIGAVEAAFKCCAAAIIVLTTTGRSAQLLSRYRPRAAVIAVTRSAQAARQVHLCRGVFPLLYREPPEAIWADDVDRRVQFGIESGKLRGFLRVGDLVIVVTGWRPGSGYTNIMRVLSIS
(§2) For each tested compound, the ability to activate PKR was determined using the following Luminescence Assay. The effect of phosphorylation of adenosine-5′-diphosphate (ADP) by PKR is determined by the Kinase Glo Plus Assay (Promega) in the presence or absence of FBP (D-fructose-1,6-diphosphate; BOC Sciences, CAS: 81028-91-3) as follows. Unless otherwise indicated, all reagents are purchased from Sigma-Aldrich. All reagents are prepared in buffer containing 50 mM Tris-HCl, 100 mM KCl, 5 mM MgCl2, and 0.01% Triton X100, 0.03% BSA, and 1 mM DTT. Enzyme and PEP (phosphoenolpyruvate) are added at 2× to all wells of an assay-ready plate containing serial dilutions of test compounds or DMSO vehicle. Final enzyme concentrations for PKR (wt), PKR(R510Q), and PKR (G332S) are 0.8 nM, 0.8 nM, and 10 nM respectively. Final PEP concentration is 100 μM. The Enzyme/PEP mixture is incubated with compounds for 30 minutes at RT before the assay is initiated with the addition of 2×ADP and KinaseGloPlus. Final concentration of ADP is 100 μM. […] For assays containing FBP, that reagent is added at 30 μM upon reaction initiation. Reactions are allowed to progress for 45 minutes at RT until luminescence is recorded by the BMG PHERAstar FS Multilabel Reader. The compound is tested in triplicate at concentrations ranging from 42.5 μM to 2.2 nM in 0.83% DMSO. AC50 measurements were obtained by the standard four parameter fit algorithm of ActivityBase XE Runner (max, min, slope and AC50). The AC50 value for a compound is the concentration (μM) at which the activity along the four parameter logistic curve fit is halfway between minimum and maximum activity.
(§3) As set forth in Table 2 below, AC50 values are defined as follows: ≤0.1 μM (+++); >0.1 μM and ≤1.0 μM (++); >1.0 μM and ≤40 μM (+); >40 μM (0).

Another series deals with PKR (wt) (Homo sapiens, UniProt P30613). The description is as above. In kind it is biochemical. The method, then:
as §1, §2, §3

A further series concerns the target PKR(R510Q) (Homo sapiens, UniProt P30613, R510Q). The series is described as above. The following applies: read-out: AC50 (PKRR510Q). In kind it is biochemical. Here is the method:
as §1, §2, §3

For series [2] the following is noted: cited from earlier work.
The conditions of series [3]: intravenous (IV) bolus dose; cited from earlier work.
Where [4] appears, read: whole blood, relative to fasted state.

Chain of PKR (wt) (P30613 whole entry): as the sequence (P30613 whole entry G332S) above, with S332G counted along it
Chain of PKR(R510Q) (P30613 whole entry R510Q): as the sequence (P30613 whole entry G332S) above, with S332G, R510Q counted along it

Consider `O=C([C@H](CO)c1ccccc1)N1CC2=C(C1)CN(S(=O)(=O)c1cnc3c(c1)OCCO3)C2` [Compound 1/Placebo], for which, in series [1] (Day 7 (on Tx)), the “Hemoglobin” value is 7.9 g/dL and 10.4 g/dL and 8.8 g/dL; the “Indirect Bilirubin” value is 2.5 mg/dL and 0.9 mg/dL and 0.8 mg/dL; the “Lactate Dehydrogenase, U/L” value is 148 U/L and 257 U/L and 371 U/L; the “Reticulocytes, %” value was 12.8% and 6.8% and 5.8%. In addition, in series [1] (Day 14/15 (EOT)), the “Hemoglobin” value was 7.5 g/dL and 11.1 g/dL and 9.2 g/dL; the “Indirect Bilirubin” value is 3.0 mg/dL and 0.8 mg/dL and 1.0 mg/dL; the “Lactate Dehydrogenase, U/L” value was 192 U/L and 226 U/L and 279 U/L; the “Reticulocytes, %” value was 11.4% and 0.8% and 4.2%. Further, the “patients with Hb increased by >1 g/dL” value in series [1] (SCD MD-1, Compound 1/placebo (currently blinded), 14 days) is recorded as 2 of 3.

Regarding `O=C(c1ccc(NS(=O)(=O)c2cccc3cccnc23)cc1)N1CCN(CC2CC2)CC1` [AG-348], the aromatase inhibition entry at aromatase is recorded as “Aromatase inhibition has been observed”.

For `O=C([C@@H](CO)c1ccccc1)N1CC2=C(C1)CN(S(=O)(=O)c1cnc3c(c1)OCCO3)C2` (single isomer, unassigned) [Compound 2], the AC50 at PKR (G332S), at PKR (wt) and on PKR(R510Q) was 1 to 40 µM in each case.

With `CC(C)n1nccc1-c1ncccc1COc1cccc(O)c1C=O` [voxelotor, 2-hydroxy-6-((2-(1-isopropyl-1H-pyrazol-5-yl)pyridin-3-yl)methoxy)benzaldehyde], in series [2] (plasma), the “increase in AUC with high-fat, high-calorie meal” value was 42%; the “increase in Cmax with high-fat, high-calorie meal” value is on record as 95%; the “steady state AUC higher in HbSC vs HbSS genotype patients” value is recorded as 23%; the “steady state Cmax higher in HbSC vs HbSS genotype patients” value was 15%. In series [2] (setting [4]), the “increase in AUC with high-fat, high-calorie meal” value is recorded as 42% and the “increase in Cmax with high-fat, high-calorie meal” value is 45%. In series [2] (whole blood), the “steady state AUC higher in HbSC vs HbSS genotype patients” value was 50% and the “steady state Cmax higher in HbSC vs HbSS genotype patients” value is listed as 45%.

Consider `NC(=O)CC[C@H](N)C(=O)O` [L-glutamine, (S)-2-aminoglutaramic acid], for which the volume of distribution result in series [3] is on record as “approximately 200 mL/kg”.

The record behind these values is patent US12128035B2, “Activating pyruvate kinase R” (Novo Nordisk Health Care AG, priority 2021, dated 2024).
